Measured values reported in patent EP4592286A1, “MACROCYCLIC NITROGEN-CONTAINING CROWN ETHER COMPOUND AND USE THEREOF AS PROTEIN KINASE INHIBITOR” (Artivila Biopharma, priority 2022, dated 2024).

Tests used:
JAK1 [1] = biological target: T1, JAK1 (Homo sapiens, UniProt P23458); assay: JAKs cell activity test: detection of pSTAT6 in THP1 cells induced by JAK1_IL-4; assay type: cell-based; conditions: pSTAT6, IL-4-induced THP1 cells
Description: Detection of pSTAT6 in THP1 cells induced by JAK1_IL-4
THP1 cells were collected by centrifugation, resuspended with 1×HBSS, counted and diluted to a certain cell density. They were inoculated in a 384-well plate and cultured in a saturated humidity incubator with 37 °C and 5% CO2. The compound (DMSO final volume of 0.3%) was added to THP1 cells (10 doses in duplicates) and cultured in a saturated humidity incubator with 37 °C and 5% CO2. hIL-4 was added to stimulate cells and cultured in a saturated humidity incubator with 37 °C and 5% CO2. The lysis solution was added and incubated at room temperature. According to the instructions of AlphaLISA SureFire Ultra p-STAT6 detection kit, the lysis solution was transferred to pSTAT6 detection system, and the ALPHA signal was read by PE Envision microplate reader. The inhibition rate Inh%=((DMSO-sample)/(DMSO-background))×100 was calculated. IC50 was obtained by fitting with GraphPad Prism non-linear regression equation, and y=Bottom+(Top-Bottom)/(1+10^((LogIC50-x)×hillslope)), where x was the concentration of the compound and y was the inhibition rate.

JAK3 = biological target: T2, JAK3 (Homo sapiens, UniProt P52333); assay: experiment of inhibiting kinase activity (Caliper mobility shift assay), JAK3; assay type: biochemical; conditions: for inhibition at 0.01 µM: at 10 nM; for inhibition at 0.01 µM / inhibition at 0.1 µM: read-out: inhibition rate JAK3; for inhibition at 0.1 µM: at 100 nM
T2 sequence (P52333 1-1124): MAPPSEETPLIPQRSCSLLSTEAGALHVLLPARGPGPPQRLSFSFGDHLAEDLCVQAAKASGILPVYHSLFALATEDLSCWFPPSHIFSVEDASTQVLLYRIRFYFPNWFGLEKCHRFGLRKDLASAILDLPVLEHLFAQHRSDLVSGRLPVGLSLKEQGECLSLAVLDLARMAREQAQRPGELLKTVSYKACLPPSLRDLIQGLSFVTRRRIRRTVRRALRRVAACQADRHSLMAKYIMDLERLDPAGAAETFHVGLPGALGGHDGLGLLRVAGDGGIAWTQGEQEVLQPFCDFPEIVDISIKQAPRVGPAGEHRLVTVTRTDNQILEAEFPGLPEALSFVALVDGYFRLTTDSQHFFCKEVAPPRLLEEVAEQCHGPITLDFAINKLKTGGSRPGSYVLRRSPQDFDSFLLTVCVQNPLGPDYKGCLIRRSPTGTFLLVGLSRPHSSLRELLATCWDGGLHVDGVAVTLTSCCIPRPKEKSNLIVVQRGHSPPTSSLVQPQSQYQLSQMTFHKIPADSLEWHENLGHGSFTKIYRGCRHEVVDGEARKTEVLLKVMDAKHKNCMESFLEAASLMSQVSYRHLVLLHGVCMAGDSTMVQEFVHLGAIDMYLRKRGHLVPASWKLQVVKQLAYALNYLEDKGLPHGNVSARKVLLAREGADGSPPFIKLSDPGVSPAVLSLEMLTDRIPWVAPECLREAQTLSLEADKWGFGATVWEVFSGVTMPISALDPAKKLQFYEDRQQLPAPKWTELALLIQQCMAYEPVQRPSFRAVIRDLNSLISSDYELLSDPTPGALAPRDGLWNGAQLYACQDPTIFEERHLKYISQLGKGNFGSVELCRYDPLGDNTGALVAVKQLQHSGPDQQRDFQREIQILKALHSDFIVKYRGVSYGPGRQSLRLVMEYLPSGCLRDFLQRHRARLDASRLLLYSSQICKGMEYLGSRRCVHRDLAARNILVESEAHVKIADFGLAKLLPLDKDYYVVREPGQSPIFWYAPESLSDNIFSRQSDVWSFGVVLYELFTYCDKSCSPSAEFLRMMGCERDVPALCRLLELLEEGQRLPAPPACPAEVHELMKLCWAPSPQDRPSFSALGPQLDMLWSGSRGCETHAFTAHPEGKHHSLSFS
How it was run: (§1)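 Inhibition is measured as reduced conversion of substrate by the kinase, separated by microfluidic mobility shift after a room-temperature reaction started with ATP/substrate following a 10-min compound preincubation. Test doses are 10 nM, 100 nM, or a 10-point 3-fold series from 10 µM.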

CDK7 = CDK7 (Homo sapiens, UniProt P50613); assay: experiment of inhibiting kinase activity (Caliper mobility shift assay), CDK7; assay type: biochemical; conditions: read-out: inhibition rate CDK7; for inhibition at 0.1 µM: at 100 nM
How it was run: as §1

JAK2 = JAK2 (Homo sapiens, UniProt O60674); assay: experiment of inhibiting kinase activity (Caliper mobility shift assay), JAK2; assay type: biochemical; conditions: for inhibition at 0.01 µM: at 10 nM; for inhibition at 0.01 µM / inhibition at 0.1 µM: read-out: inhibition rate JAK2; for inhibition at 0.1 µM: at 100 nM; for IC50: kinase activity assay, Table 3
JAK2, sequence (O60674 whole entry): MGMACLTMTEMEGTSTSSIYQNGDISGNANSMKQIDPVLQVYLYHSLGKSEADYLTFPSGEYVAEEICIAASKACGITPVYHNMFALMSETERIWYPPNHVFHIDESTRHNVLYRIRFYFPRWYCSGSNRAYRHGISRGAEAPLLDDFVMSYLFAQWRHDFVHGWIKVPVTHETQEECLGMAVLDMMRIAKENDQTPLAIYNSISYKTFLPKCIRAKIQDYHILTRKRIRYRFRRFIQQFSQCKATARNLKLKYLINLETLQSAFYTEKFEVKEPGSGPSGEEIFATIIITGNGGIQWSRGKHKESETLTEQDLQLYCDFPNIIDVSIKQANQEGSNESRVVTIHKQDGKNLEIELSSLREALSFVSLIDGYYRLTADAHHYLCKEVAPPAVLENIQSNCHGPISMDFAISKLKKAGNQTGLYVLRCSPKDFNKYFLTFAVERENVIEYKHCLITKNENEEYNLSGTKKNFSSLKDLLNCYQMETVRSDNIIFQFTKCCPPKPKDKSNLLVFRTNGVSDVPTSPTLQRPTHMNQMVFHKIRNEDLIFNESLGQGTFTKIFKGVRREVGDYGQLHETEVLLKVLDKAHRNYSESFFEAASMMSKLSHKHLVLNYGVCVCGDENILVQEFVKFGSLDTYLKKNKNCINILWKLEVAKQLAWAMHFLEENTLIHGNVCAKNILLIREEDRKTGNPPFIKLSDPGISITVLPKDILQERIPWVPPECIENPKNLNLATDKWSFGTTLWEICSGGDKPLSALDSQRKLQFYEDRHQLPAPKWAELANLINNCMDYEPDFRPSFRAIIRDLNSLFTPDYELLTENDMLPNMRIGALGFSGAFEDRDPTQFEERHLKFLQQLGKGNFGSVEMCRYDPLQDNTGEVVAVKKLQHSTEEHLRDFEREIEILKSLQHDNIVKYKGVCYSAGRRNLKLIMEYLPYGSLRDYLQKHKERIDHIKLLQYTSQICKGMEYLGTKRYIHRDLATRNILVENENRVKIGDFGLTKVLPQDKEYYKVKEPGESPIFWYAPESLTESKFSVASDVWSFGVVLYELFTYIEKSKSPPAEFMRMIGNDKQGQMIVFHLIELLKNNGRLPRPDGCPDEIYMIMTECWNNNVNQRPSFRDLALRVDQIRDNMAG
How it was run: as §1

LRRK2 = LRRK2 (Homo sapiens, UniProt Q5S007); assay: experiment of inhibiting kinase activity, LRRK2; assay type: biochemical; conditions: for inhibition at 0.1 µM: at 100 nM; for inhibition at 0.1 µM / inhibition at 0.01 µM: read-out: inhibition rate LRRK2; for IC50: kinase activity assay, Table 3; for inhibition at 0.01 µM: at 10 nM
LRRK2, sequence (Q5S007 whole entry): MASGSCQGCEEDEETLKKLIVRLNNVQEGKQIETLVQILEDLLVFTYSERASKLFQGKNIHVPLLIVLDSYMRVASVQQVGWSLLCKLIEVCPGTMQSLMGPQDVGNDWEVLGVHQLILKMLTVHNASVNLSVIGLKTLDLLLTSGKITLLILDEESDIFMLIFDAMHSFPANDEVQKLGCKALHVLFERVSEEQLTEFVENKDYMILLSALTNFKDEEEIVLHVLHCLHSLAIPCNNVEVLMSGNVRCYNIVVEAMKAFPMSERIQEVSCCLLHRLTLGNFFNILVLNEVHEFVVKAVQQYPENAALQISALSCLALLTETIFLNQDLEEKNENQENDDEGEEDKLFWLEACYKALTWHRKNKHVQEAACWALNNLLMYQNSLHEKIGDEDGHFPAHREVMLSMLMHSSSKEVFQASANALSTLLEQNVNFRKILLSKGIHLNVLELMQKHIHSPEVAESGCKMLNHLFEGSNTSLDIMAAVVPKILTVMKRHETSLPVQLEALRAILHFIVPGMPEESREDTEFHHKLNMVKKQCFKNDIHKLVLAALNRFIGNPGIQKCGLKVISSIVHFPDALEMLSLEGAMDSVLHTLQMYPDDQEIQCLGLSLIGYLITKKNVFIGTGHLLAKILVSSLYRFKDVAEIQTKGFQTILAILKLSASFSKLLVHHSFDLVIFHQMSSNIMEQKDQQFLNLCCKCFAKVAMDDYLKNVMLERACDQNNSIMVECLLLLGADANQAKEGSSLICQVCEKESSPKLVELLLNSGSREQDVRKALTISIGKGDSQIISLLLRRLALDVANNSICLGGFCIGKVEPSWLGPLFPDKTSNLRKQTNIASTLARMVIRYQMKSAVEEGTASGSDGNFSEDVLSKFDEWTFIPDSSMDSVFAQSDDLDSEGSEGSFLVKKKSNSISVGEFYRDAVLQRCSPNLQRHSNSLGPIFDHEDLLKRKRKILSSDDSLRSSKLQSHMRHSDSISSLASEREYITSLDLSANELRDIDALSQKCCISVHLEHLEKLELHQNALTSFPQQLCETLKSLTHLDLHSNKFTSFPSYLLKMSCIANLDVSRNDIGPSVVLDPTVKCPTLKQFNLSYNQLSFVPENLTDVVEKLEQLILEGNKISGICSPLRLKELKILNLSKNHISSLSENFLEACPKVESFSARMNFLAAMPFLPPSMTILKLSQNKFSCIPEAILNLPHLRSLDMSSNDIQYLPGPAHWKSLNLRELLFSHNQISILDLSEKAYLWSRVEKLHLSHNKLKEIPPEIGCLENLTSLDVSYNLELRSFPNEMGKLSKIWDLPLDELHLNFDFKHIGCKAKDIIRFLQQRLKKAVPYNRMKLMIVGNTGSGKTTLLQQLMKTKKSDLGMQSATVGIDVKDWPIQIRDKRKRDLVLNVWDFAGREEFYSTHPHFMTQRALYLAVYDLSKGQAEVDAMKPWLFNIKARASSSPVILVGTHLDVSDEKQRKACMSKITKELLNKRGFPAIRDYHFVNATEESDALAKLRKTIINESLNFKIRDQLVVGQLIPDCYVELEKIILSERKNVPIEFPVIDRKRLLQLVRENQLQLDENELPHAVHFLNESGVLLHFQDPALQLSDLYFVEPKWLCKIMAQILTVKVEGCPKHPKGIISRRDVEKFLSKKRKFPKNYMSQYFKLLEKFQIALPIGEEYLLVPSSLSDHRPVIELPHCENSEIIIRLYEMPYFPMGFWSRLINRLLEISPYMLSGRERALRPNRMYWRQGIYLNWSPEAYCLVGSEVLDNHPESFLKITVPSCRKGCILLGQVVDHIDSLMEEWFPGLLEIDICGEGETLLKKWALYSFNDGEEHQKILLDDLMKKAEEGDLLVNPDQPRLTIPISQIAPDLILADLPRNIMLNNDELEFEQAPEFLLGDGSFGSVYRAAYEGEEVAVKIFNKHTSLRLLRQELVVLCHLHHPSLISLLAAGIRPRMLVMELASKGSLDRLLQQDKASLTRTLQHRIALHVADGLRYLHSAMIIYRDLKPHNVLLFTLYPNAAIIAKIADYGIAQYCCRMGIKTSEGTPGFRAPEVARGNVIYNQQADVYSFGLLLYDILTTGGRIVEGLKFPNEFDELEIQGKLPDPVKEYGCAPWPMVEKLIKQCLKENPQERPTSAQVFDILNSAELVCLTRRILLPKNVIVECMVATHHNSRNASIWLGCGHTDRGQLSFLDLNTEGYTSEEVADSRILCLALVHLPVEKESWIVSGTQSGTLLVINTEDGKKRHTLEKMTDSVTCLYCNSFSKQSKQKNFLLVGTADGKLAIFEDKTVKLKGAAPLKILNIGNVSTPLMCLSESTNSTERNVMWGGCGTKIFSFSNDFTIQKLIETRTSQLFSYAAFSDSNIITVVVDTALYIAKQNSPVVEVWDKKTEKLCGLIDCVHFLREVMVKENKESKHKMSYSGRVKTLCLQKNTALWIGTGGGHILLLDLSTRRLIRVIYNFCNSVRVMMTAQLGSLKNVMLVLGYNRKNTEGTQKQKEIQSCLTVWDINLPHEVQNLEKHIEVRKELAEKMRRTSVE
Description: The inhibition rates of tested compounds on JAK1, JAK2, JAK3, TYK2, CDK7, CDK9, EGFR (T790M) and LRRK2 kinases were measured. The test concentrations of the compounds were 10 nM and 100 nM, and the detection was performed by replicate wells. Alternatively, compounds were 3-fold serial diluted from 10 µM for 10 concentrations in replicate wells.

JAK1 [2] = biological target: T1, JAK1; assay: experiment of inhibiting kinase activity (Caliper mobility shift assay), JAK1; assay type: biochemical; conditions: for inhibition at 0.1 µM: at 100 nM; for inhibition at 0.1 µM / inhibition at 0.01 µM: read-out: inhibition rate JAK1; for IC50: kinase activity assay, Table 3; for inhibition at 0.01 µM: at 10 nM
How it was run: as §1

T1 sequence (P23458 whole entry): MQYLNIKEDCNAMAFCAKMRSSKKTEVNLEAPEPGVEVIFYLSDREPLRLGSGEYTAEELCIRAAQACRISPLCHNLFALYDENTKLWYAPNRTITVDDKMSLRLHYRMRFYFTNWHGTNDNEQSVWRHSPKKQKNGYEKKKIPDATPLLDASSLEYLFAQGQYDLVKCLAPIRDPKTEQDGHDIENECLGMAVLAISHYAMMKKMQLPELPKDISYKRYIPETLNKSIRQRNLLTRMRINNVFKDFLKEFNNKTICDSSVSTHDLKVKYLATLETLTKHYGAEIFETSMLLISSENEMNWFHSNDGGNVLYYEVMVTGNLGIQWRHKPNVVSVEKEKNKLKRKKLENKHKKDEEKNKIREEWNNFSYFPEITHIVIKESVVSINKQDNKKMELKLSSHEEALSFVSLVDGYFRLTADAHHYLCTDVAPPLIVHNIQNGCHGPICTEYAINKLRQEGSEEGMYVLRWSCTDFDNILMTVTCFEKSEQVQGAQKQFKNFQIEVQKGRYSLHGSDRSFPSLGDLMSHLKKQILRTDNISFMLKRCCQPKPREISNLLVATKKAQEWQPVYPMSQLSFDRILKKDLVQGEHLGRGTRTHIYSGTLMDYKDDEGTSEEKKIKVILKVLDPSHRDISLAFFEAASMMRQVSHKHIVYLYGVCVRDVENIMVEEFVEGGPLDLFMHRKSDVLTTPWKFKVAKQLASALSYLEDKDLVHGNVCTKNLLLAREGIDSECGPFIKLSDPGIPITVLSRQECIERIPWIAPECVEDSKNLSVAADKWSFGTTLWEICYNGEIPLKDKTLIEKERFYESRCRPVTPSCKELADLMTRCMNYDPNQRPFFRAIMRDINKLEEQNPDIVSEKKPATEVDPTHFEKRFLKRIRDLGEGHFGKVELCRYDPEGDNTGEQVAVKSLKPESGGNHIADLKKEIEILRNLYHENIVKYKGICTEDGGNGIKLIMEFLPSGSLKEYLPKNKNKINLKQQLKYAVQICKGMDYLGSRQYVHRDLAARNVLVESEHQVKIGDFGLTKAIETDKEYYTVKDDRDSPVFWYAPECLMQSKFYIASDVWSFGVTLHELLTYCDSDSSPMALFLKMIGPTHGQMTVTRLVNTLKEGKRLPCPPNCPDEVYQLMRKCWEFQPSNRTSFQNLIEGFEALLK

SMILES	EC50 (JAK1 [1]) [nM]	inhibition at 0.01 µM (JAK3) [%]	inhibition at 0.1 µM (JAK3) [%]	IC50 (JAK3; kinase activity assay, Table 3) [nM]	inhibition at 0.01 µM (CDK7; at 10 nM) [%]	inhibition at 0.1 µM (CDK7) [%]	inhibition at 0.01 µM (JAK2) [%]	inhibition at 0.1 µM (JAK2) [%]	IC50 (JAK2) [nM]	inhibition at 0.1 µM (LRRK2) [%]	IC50 (LRRK2) [nM]	inhibition at 0.1 µM (JAK1 [2]) [%]	IC50 (JAK1 [2]) [nM]	inhibition at 0.01 µM (LRRK2) [%]	inhibition at 0.01 µM (JAK1 [2]) [%]
CN1CCOCCOc2cc(Nc3ncc(F)c(-c4ccc(C(=O)NCC#N)cc4)n3)ccc2OCC1 [Example 16, N-(cyanomethyl)-4-(5-fluoro-2-((7-methyl-2,3,6,7,8,9-hexahydro-5H-benzo[b][1,4,7]trioxa[10]azacyclododecan-13-yl)amino)pyrimidin-4-yl)benzamide]	50 to 500	40 to 79	> 80	< 50	25 to 39	> 80	40 to 79	> 80	< 50	40 to 79	50 to 200	40 to 79	50 to 200	–	–
CN1CCOCCOc2cc(Nc3nc(-c4cnn(C(CC#N)C5CCCC5)c4)c4cc[nH]c4n3)ccc2OCC1 (stereo not drawn) [Example 26, 3-cyclopentyl-3-(4-(2-((7-methyl-2,3,6,7,8,9-hexahydro-5H-benzo[b][1,4,7]trioxa[10]azacyclododecan-13-yl)amino)-7H-pyrrolo[2,3-d]pytimidin-4-yl)-1H-pyrazol-1-yl)propionitrile]	< 50	> 80	> 80	–	–	40 to 79	> 80	> 80	–	> 80	–	> 80	–	> 80	> 80
CCS(=O)(=O)N1CC(CC#N)(n2cc(-c3nc(Nc4ccc5c(c4)OCCN(C)CCO5)nc4[nH]ccc34)cn2)C1 [Example 28, 2-(1-(ethylsulfonyl)-3-(4-(2-((4-methyl-3,4,5,6-tetrahydro-2H-benzo[b][1,4,7]dioxazolin-9-yl)amino)-7H-pyrrolo[2,3-d]pytimidin-4-yl)-1H-pyrazol-1-yl)azetidin-3-yl) acetonitrile]	< 50	–	–	–	–	–	> 80	> 80	< 50	> 80	< 50	> 80	< 50	40 to 79	> 80
